Assay results published in patent US9050301B2, “Pharmaceutical composition for treatment of corneal endothelial wounds containing angiogenin” (Chung-Ang University Industry-Academy Cooperation Foundation, priority 2013, dated 2015).

Assays:
[1] = test system: rabbit corneal endothelium; assay: Ratio of corneas without opacity and edema (digital camera images) after trans-corneal freezing damage; type: in vivo; settings: angiogenin 200 μg/mL
Description: (§1) 30 eyeballs of 15 healthy white New Zealand rabbits weighing about 2.0 kg to about 3.0 kg without external opacification were anesthetized by intramuscular injection with 12.5 mg/kg of tiletamine/zolazepam (Zoletil®, VirbacLab, France) and 12.5 mg/kg of zylazine (Rompun®, BayerKorea, Korea). Afterwards, 0.5% povidone-iodine was used for disinfection of the whole range of experimental sight. Referring to FIG. 1, an 8 mm-diameter stainless steel rod as a probe was immersed in liquid nitrogen for 3 minutes, removed therefrom once the temperature of the liquid nitrogen reached −196° C., and brought into contact to the central cornea for 15 seconds. Then, each of the eyeballs was washed with 10 cc of 0.9% saline solution. In order to prevent the occurrence of corneal infection, the rabbit corneas were given instillation of Levofloxacin (Cravit®, Santen, Japan) three times a day for 3 days after the damage was induced.
(§2) 3 groups consisting of 10 eyeballs given instillation of angiogenin (200 μg/mL), 7 eyeballs given Y-27632 (10 mM) inhibitor of Rho-associated coiled-coil kinase (ROCK) pathway, and 7 eyeballs as a control group given phosphate-buffered solution (PBS) were each subjected to 50 μl of instillation at a time, and more particularly, 6 times a day for the first 2 days, and then, 4 times a day for the following 2 days, starting immediately after inducing freeze-damages to the trans-corneal endothelium. That is, the instillation was performed 20 times in total for 4 days.
(§3) Then, the groups were subjected to the evaluation of corneal opacity and corneal edema by using a digital camera (VLUUNV100HD, Samsung, Suwon, Korea) to obtain images taken in a diagonal direction.
(§4) Experiments have been carried out to identify effects of angiogenin-induced PI3k-Akt signaling pathway in terms of recovering the corneal transparency after inducing damages to the corneal endothelium. After inducing freeze-damages to the corneal endothelium, 4 eyeballs out of 30 rabbit eyeballs in total were subjected to 50 μl of each of 200 μg/mL of angiogenin and 200 μM of PI3k-Akt pathway inhibitor, LY294002 instillation at a time every 3 minutes, and more particularly, 6 times a day for the first 2 days, and then, 4 times a day for the following one day. That is, the instillation was performed 16 times in total for 3 days.

[2] = test system: rabbit corneal endothelium; assay: Corneal transparency grade by slit-lamp after trans-corneal freezing damage; type: in vivo; settings: mean ± SE
Description: as §1, §2, §3, §4

eNOS = assay: Western blot of angiogenin lower pathway, eNOS; type: cell-based, human; settings: angiogenin 5 μg/ml
Description: (§5) The culture medium containing 5 μg/ml of angiogenin was treated with the cultured human corneal endothelial cells for 5 minutes, 10 minutes, 30 minutes, 1 hour, and 3 hours. Afterwards, according to the treatment times, expression aspects of Akt, eNOS, and Erk1/2 genes targeting the lower pathway of angiogenin were analyzed. First, a PRO-PREP™ protein extracting solution (Intron Biotechnology, Seongnam, Korea) was used to separate the total proteins from the corneal endothelial cells. The total proteins (30 μg/sample) were heat-treated at a temperature of about 100° C. for 5 minutes, and then, 10% sodiumdodecyl sulfate polyacrylamide (SDS-PAGE) gel was used to perform electrophoresis. The proteins separated according to molecular weights thereof were transferred to a polyvinylidene fluoride (PVDF) membrane, followed by being blocked by 5% BSA dissolved in 1× tris-buffered saline (TBS) at room temperature for 1 hour. […] The ECL western blotting detection reagent (Amersham Bioscience, Piscataway, USA) was used in terms of luminescence, and then, images were detected by using the same reagent for ChemiDoc™ XRS system (Bio-Rad, Hercules, USA).

Erk1/2 = assay: Western blot of angiogenin lower pathway, Erk1/2; type: cell-based, human; settings: angiogenin 5 μg/ml
Description: as §5

Akt = assay: Western blot of angiogenin lower pathway, Akt; type: cell-based, human; settings: angiogenin 5 μg/ml
Description: as §5

[3] = 48 h after freeze damage, Y-27632 10 mM instillation
[4] = 72 h after freeze damage, Y-27632 10 mM, LY294002 200 μM instillation
[5] = 144 h after freeze damage, Y-27632 10 mM instillation
[6] = 192 h after freeze damage, Y-27632 10 mM instillation
[7] = 48 h after freeze damage, instillation 50 μl (angiogenin 200 μg/mL, Y-27632 10 mM), grade 0 transparent to +4.0 turbid (Table 1)
[8] = 72 h after freeze damage, instillation 50 μl (angiogenin 200 μg/mL, Y-27632 10 mM, LY294002 200 μM), grade 0 to +4.0 (Table 1)
[9] = 144 h after freeze damage, instillation 50 μl (angiogenin 200 μg/mL, Y-27632 10 mM), grade 0 to +4.0 (Table 1)
[10] = 192 h after freeze damage, instillation 50 μl (angiogenin 200 μg/mL, Y-27632 10 mM), grade 0 to +4.0 (Table 1)

| Compound | Ratio of number of cornea without opacity and edema (digital camera images) [1, 3] | Ratio of number of cornea without opacity and edema (digital camera images) [1, 4] | Ratio of number of cornea without opacity and edema (digital camera images) [1, 5] | Ratio of number of cornea without opacity and edema (digital camera images) [1, 6] | Grade of corneal transparency (by using slit-lamp biomicroscope) [2, 7] | Grade of corneal transparency (by using slit-lamp biomicroscope) [2, 8] | Grade of corneal transparency (by using slit-lamp biomicroscope) [2, 9] | Grade of corneal transparency (by using slit-lamp biomicroscope) [2, 10] | Time of maximal p-eNOS expression after angiogenin treatment (eNOS) | Relative expression of phosphate (p-form/t-form) of eNOS compared with the control group (eNOS; 5 minutes to 3 hours) | Time of maximal p-Erk1/2 expression after angiogenin treatment (Erk1/2) | Relative expression of phosphate (p-form/t-form) of Erk1/2 compared with the control group (Erk1/2; 5 minutes to 3 hours) | Time of maximal p-Akt expression after angiogenin treatment (Akt) | Relative expression of phosphate (p-form/t-form) of Akt compared with the control group (Akt; 5 minutes to 3 hours) |
| --- | --- | --- | --- | --- | --- | --- | --- | --- | --- | --- | --- | --- | --- | --- |
| C[C@@H](N)[C@H]1CC[C@H](C(=O)Nc2ccncc2)CC1 [Y-27632, reference compound] | 0% | 14.3% | 14.3% | 14.3% | 4.00 ± 0 | 3.00 ± 0.41 | 1.38 ± 0.38 | 1.38 ± 0.38 |  |  |  |  |  |  |
| Angiogenin: 14.4-kDa single chain protein of 123 amino acids, secreted protein capable of inducing angiogenesis | 10% | 20% | 37.5% | 50% | 4.00 ± 0 | 2.65 ± 0.37 | 1.29 ± 0.26 | 1.29 ± 0.26 | 3 h | increased extent of relative expression of phosphate (p-form/t-form) | 30 min | increased extent of relative expression of phosphate (p-form/t-form) | 10 min | increased extent of relative expression of phosphate (p-form/t-form) |
